Patent US11162944B2, “Compositions and methods” (priority 2015, dated 2021)
Marks after values point to notes of the source that are not given here.

Legend:
[1] = system: biomarker (antibody) in serum from patients with suspected TB (tuberculosis); assay: ELISA of 64 serum samples on three synthetic antigens (Example 6); assay type: binding, human; conditions: dilution 1 in 80
Procedure: ELISA assays were carried out as known to those practiced in the art using 96 well plates. In the first procedure, the ELISA assay was carried out on 96-well microplates and the purified antigens were dissolved in n-hexane at a concentration of 62.5 μg/mL. The antigen solution was diluted and 50 μL was placed in each well. The plates were left to dry at room temperature overnight. Blocking was done with 0.5% casein/PBS (400 μL/well) and the plates were left to incubate at 25° C. for 1 h. The casein was aspirated using the LT-3500 plate washer and the plates flicked dry. Then the serum (1:20 dilution in 0.5% casein/PBS, pH 7.4) was added to the plate (50 μL/well) and left to incubate at 25° C. for 1 h. The serum was aspirated and washed three times with (casein/PBS, 400 μL/well) using the same plate washer and the plates were flicked dry again. After that, the secondary antibody, in the example given IgG Fc (1:1000 dilution in 0.5% casein/PBS) was added to the plate (50 μL/well) and the plates were left to incubate at 25° C. for 30 min. The plates were washed three times again with casein/PBS (400 μL/well) and dried. Then, the OPD substrate was added to the plates, which were left to incubate at 25° C. for 30 min. Finally, 2.5 M H2SO4 (50 μL/well) was added and the absorbances of each well were read at 492, 450 and 630 nm using an LT-4000 plate reader.
Human serum used in this work was from the WHO sample bank. In this case, all the patients had presented at a hospital with the symptoms of TB. Clinical diagnosis was made on the basis of a series of standard assays.
All measurements were taken as four replicates unless otherwise stated. These were averaged to provide the data in the tables which are for the value at 492 nm.
A set of 64 samples of serum from patients attending a clinic with suspected TB (tuberculosis) in a high burden TB population was examined using ELISA. Samples 1-9 had been diagnosed as positive for infection with tuberculosis (TB+) on the basis of a range of assays including sputum smear and culture, and samples 10-64 as negative for infection with tuberculosis (TB−). An ELISA assay was carried out with three synthetic antigens having the structures:
Cut-off values were set to identify all the positive samples with all three antigens, and the false positives were then identified in Table 3. […] 53 of the 55 negatives were correctly identified giving a specificity of 96%. The shaded results denote a result which is above the cut-off set for that particular antigen assay.

wild-type BMDCs = assay: IL-6 secretion by bone marrow-derived dendritic cells, cytokine-specific ELISA; assay type: cell-based, mice; conditions: antigens at 100 μg/ml coated on plate, ISO as solvent, FIG. 1
Procedure: The concentrations of cytokines in the cell-free medium from stimulation of bone marrow-derived dendritic cells were determined using standard cytokine-specific ELISA. BMDCs were generated from mice, by flushing out the femurs of mice into complete medium and pipetting vigorously to make a single-cell suspension. The glycolipids were coated to the bottom of 96 micro-well plates (100 μg/ml). BMDCs were added, and after 6 or 48 hours of incubation the supernatants were harvested.
The first experiment was the IL-6 secretion by wild-type BMDCs from mice using compounds B, D, C and H (shown below) as antigens at 100 μg/ml, and isopropyl alcohol (ISO) as a solvent. Commercial trehalose-6,6-dimycolate (TDM), lipopolysaccharides (LPS), and trehalose-6,6-dibehenate (TDB) were used as a controls.

`CCCCCCCCCCCCCCCCCCCCCCCC[C@@H](C(=O)OC[C@H]1O[C@H](OC)[C@@H](O)[C@@H]1O)[C@H](O)CCCCCCCCCCCC1CC1CCCCCCCCCCCCCC[C@H]1C[C@H]1CCCCCCCCCCCCCCCCCCCC` (some centres unmarked) [Antigen 3] was tested, and the “ELISA absorbance at 492 nm” value ([1]; sample 1 (TB+)) was 0.74*, the “ELISA absorbance at 492 nm” value ([1]; sample 2 (TB+)) was 0.76* and the “ELISA absorbance at 492 nm” value ([1]; sample 3 (TB+)) was 0.99*. The “ELISA absorbance at 492 nm” value ([1]; sample 4 (TB+)) was 0.97*, the “ELISA absorbance at 492 nm” value ([1]; sample 5 (TB+)) was 0.99* and the “ELISA absorbance at 492 nm” value ([1]; sample 6 (TB+)) was 1.39*. The “ELISA absorbance at 492 nm” value ([1]; sample 7 (TB+)) was 1.97*, the “ELISA absorbance at 492 nm” value ([1]; sample 8 (TB+)) was 1.67* and the “ELISA absorbance at 492 nm” value ([1]; sample 9 (TB+)) was 1.09*. The “ELISA absorbance at 492 nm” value ([1]; sample 10 (TB−)) was 0.59, the “ELISA absorbance at 492 nm” value ([1]; sample 11 (TB−)) was 0.92* and the “ELISA absorbance at 492 nm” value ([1]; sample 12 (TB−)) was 0.84*. For the same molecule, the “ELISA absorbance at 492 nm” value ([1]; sample 13 (TB−)) was 0.60, the “ELISA absorbance at 492 nm” value ([1]; sample 14 (TB−)) was 1.30* and the “ELISA absorbance at 492 nm” value ([1]; sample 15 (TB−)) was 0.64. For the same molecule, the “ELISA absorbance at 492 nm” value ([1]; sample 16 (TB−)) was 0.56, the “ELISA absorbance at 492 nm” value ([1]; sample 17 (TB−)) was 0.81* and the “ELISA absorbance at 492 nm” value ([1]; sample 18 (TB−)) was 0.68. The “ELISA absorbance at 492 nm” value ([1]; sample 19 (TB−)) was 0.71*, the “ELISA absorbance at 492 nm” value ([1]; sample 20 (TB−)) was 1.03* and the “ELISA absorbance at 492 nm” value ([1]; sample 21 (TB−)) was 0.61. For the same molecule, the “ELISA absorbance at 492 nm” value ([1]; sample 22 (TB−)) was 0.66, the “ELISA absorbance at 492 nm” value ([1]; sample 23 (TB−)) was 0.81* and the “ELISA absorbance at 492 nm” value ([1]; sample 24 (TB−)) was 0.62. The “ELISA absorbance at 492 nm” value ([1]; sample 25 (TB−)) was 0.21, the “ELISA absorbance at 492 nm” value ([1]; sample 26 (TB−)) was 0.72* and the “ELISA absorbance at 492 nm” value ([1]; sample 27 (TB−)) was 0.61. For the same molecule, the “ELISA absorbance at 492 nm” value ([1]; sample 28 (TB−)) was 0.38, the “ELISA absorbance at 492 nm” value ([1]; sample 29 (TB−)) was 0.41 and the “ELISA absorbance at 492 nm” value ([1]; sample 30 (TB−)) was 0.39. The “ELISA absorbance at 492 nm” value ([1]; sample 31 (TB−)) was 0.51, the “ELISA absorbance at 492 nm” value ([1]; sample 32 (TB−)) was 0.91* and the “ELISA absorbance at 492 nm” value ([1]; sample 33 (TB−)) was 0.42. For the same molecule, the “ELISA absorbance at 492 nm” value ([1]; sample 34 (TB−)) was 0.49, the “ELISA absorbance at 492 nm” value ([1]; sample 35 (TB−)) was 0.38 and the “ELISA absorbance at 492 nm” value ([1]; sample 36 (TB−)) was 0.28. The “ELISA absorbance at 492 nm” value ([1]; sample 37 (TB−)) was 0.55, the “ELISA absorbance at 492 nm” value ([1]; sample 38 (TB−)) was 0.52 and the “ELISA absorbance at 492 nm” value ([1]; sample 39 (TB−)) was 0.35. For the same molecule, the “ELISA absorbance at 492 nm” value ([1]; sample 40 (TB−)) was 0.35, the “ELISA absorbance at 492 nm” value ([1]; sample 41 (TB−)) was 0.66 and the “ELISA absorbance at 492 nm” value ([1]; sample 42 (TB−)) was 0.55. The “ELISA absorbance at 492 nm” value ([1]; sample 43 (TB−)) was 0.30, the “ELISA absorbance at 492 nm” value ([1]; sample 44 (TB−)) was 0.98* and the “ELISA absorbance at 492 nm” value ([1]; sample 45 (TB−)) was 0.43. The “ELISA absorbance at 492 nm” value ([1]; sample 46 (TB−)) was 0.31, the “ELISA absorbance at 492 nm” value ([1]; sample 47 (TB−)) was 0.56 and the “ELISA absorbance at 492 nm” value ([1]; sample 48 (TB−)) was 0.32. For the same molecule, the “ELISA absorbance at 492 nm” value ([1]; sample 49 (TB−)) was 0.51, the “ELISA absorbance at 492 nm” value ([1]; sample 50 (TB−)) was 0.37 and the “ELISA absorbance at 492 nm” value ([1]; sample 51 (TB−)) was 0.21. The “ELISA absorbance at 492 nm” value ([1]; sample 52 (TB−)) was 0.36, the “ELISA absorbance at 492 nm” value ([1]; sample 53 (TB−)) was 0.26 and the “ELISA absorbance at 492 nm” value ([1]; sample 54 (TB−)) was 0.27. For the same molecule, the “ELISA absorbance at 492 nm” value ([1]; sample 55 (TB−)) was 0.27, the “ELISA absorbance at 492 nm” value ([1]; sample 56 (TB−)) was 0.73* and the “ELISA absorbance at 492 nm” value ([1]; sample 57 (TB−)) was 0.37. The “ELISA absorbance at 492 nm” value ([1]; sample 58 (TB−)) was 0.41, the “ELISA absorbance at 492 nm” value ([1]; sample 59 (TB−)) was 0.45 and the “ELISA absorbance at 492 nm” value ([1]; sample 60 (TB−)) was 0.44. The “ELISA absorbance at 492 nm” value ([1]; sample 61 (TB−)) was 0.41, the “ELISA absorbance at 492 nm” value ([1]; sample 62 (TB−)) was 0.30 and the “ELISA absorbance at 492 nm” value ([1]; sample 63 (TB−)) was 0.25. For the same molecule, the “ELISA absorbance at 492 nm” value ([1]; sample 64 (TB−)) was 0.29.

`CCCCCCCCCCCCCCCCCCCCCCCCC(C(=O)OCC1OC(OCC2OC(OC)C(O)C2OC2OC(COC(=O)C(CCCCCCCCCCCCCCCCCCCCCCCC)C(O)CCCCCCCCCCCC3CC3CCCCCCCCCCCCCCC3CC3CCCCCCCCCCCCCCCCCCCC)C(O)C2O)C(O)C1O)C(O)CCCCCCCCCCCC1CC1CCCCCCCCCCCCCCC1CC1CCCCCCCCCCCCCCCCCCCC` (centres unmarked) [H] was tested, and the “IL-6 secretion by wild-type BMDCs” value (wild-type BMDCs) was “good level of stimulation”.
